Holding throughout (assay): β-Lactamase inhibition, nitrocefin spectrophotometric assay
Assay [1] addresses class A β-lactamase TEM-1 (Escherichia coli, UniProt P62593). The format is biochemical, E. coli. The following applies: nitrocefin 50 μg/ml; 10 min preincubation at 25° C.; pH 7.0.
Another assay deals with class B enzyme CcrA (Bacteroides fragilis, UniProt P25910). It is filed as biochemical. The following applies: nitrocefin 50 μg/ml; 10 min preincubation at 25° C.; pH 7.0; read-out: IC50 Class-B Ccr.
Chain of class B enzyme CcrA (P25910 19-249): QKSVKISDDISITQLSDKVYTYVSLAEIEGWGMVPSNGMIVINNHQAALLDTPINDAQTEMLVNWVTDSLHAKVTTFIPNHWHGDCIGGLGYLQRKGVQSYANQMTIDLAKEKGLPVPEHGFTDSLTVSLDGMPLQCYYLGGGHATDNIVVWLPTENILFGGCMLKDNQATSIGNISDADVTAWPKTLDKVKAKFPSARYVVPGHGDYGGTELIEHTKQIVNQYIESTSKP
The target in assay [2] is class A β-lactamase Imi-1 (Enterobacter cloacae, UniProt Q46991).
Chain of class A β-lactamase Imi-1 (Q46991 entry or part of it): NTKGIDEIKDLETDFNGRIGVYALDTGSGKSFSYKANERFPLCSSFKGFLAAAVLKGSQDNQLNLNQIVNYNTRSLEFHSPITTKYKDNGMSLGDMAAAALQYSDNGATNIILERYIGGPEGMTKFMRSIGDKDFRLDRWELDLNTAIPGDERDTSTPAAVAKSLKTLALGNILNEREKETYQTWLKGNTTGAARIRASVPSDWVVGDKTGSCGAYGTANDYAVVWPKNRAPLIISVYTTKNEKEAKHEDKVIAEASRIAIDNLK
In a further assay the target is class C enzyme AmpC (Enterobacter cloacae, UniProt P05364). It is filed as biochemical.
Chain of class C enzyme AmpC (P05364 21-381): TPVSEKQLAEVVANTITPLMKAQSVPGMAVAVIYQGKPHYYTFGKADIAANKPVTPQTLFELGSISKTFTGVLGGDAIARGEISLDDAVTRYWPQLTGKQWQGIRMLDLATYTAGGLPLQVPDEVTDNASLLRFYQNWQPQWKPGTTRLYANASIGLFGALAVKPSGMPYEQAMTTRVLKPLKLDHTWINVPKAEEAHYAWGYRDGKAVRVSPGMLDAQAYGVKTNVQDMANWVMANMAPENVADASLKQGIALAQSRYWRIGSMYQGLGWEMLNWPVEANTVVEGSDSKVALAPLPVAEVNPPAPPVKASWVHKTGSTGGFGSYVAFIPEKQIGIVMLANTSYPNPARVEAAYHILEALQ

Chain of class A β-lactamase TEM-1 (P62593 24-286 limits assumed): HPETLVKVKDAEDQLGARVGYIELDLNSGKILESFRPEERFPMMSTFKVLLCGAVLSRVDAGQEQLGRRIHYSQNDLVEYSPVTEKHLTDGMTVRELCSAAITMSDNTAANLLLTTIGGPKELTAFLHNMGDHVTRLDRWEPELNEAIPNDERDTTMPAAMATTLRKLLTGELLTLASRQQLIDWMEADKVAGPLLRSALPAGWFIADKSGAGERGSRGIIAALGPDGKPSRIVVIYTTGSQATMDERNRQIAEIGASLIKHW

With `O=C(O)C1=CS[C@@H]2/C(=C\c3cn4c5c(sc4n3)COCC5)C(=O)N12` [Compound 2, (5R),(6Z)-6-(5,8-dihydro-6H-imidazo[2,1-b]pyrano[4,3-d][1,3]thiazol-2-ylmethylene)-7-oxo-4-thia-1-azabicyclo[3.2.0]hept-2-ene-2-carboxylic acid], the IC50 (in general, the concentration that inhibits the measured activity by half) was 2.8 nM in assay [1], 200 nM on class B enzyme CcrA, 100 nM in assay [2] and 1.5 nM against class C enzyme AmpC.
With `O=C(O)C1=CS[C@@H]2/C(=C\c3cn4c5c(sc4n3)CCC5)C(=O)N12` [Compound 1, (5R),(6Z)-6-(6,7-dihydro-5H-cyclopenta[d]imidazo[2,1-b][1,3]thiazol-2-ylmethylene)-7-oxo-4-thia-1-azabicyclo[3.2.0]hept-2-ene-2-carboxylic acid], the IC50 in assay [1] was 1.4 nM; at class B enzyme CcrA it was 240 nM; on class C enzyme AmpC it was 2.4 nM.

For the origin of these results see patent publication US20070027130A1, “Tricyclic 6-alkylidene-penem beta-lactamase inhibitors and beta-lactam antibiotic combination: a broad spectrum antibiotic” (priority 2005, published 2007).
